# Patent US5977065A, “Bacterial nitroreductase for the reduction of CB1954 and analogues thereof to a cytotoxic form” (Cancer Research Campaign Technology Limited, priority 1991, dated 1999)
# *1 amine or outer side, *2 acyl side, *3 side chain or, on linkers, in order; H or OH if unused. Where a SMILES comes first, the peptide text is derived from it. Bridges are numbered along the chain shown (N, C = ends). Roman numbers before positions name the chains, in order. [ ]: non-standard residue; d: D form. Actinocin(9to1) = Cc1c2oc3c(C)ccc(C(=O)[*:1])c3nc-2c(C(=O)[*:2])c(N)c1=O; NMeV = CN[C@H](C(=O)O)C(C)C; Sar = CNCC(=O)O
# B1: Walker NAD(P)H dehydrogenase (quinone) EC. 1.6.99.2 (Rattus norvegicus) (protein)
# chain: AVRRALIVLAHAERTSFNYAMKEAAVEALKKKGWEVVESDLYAMNFNPLISRNDITGEPKDSENFQYPVESSLAYKEGRLSPDIVAEQKKLEAADLVIFQFPLYWFGVPAILKGWFERVLVAGFAYTYATMYDKGPFQNKKTLLSITTGGSGSMYSLQGVHGDMNVILWPIQSGILRFCGFQVLEPQLVYSIGHTPPDARVQVLEGWKKRLETVWEESPLYFAPSSLFDLNFQAGFLLKKEVQEEQKKNKFGLSVGHHLGKSIPADNQIKARK
# notes: the enzyme isolated from the Walker tumour, EC.1.6.99.2; from tissue; host or cells: Walker tumour (Walker cell)
# B2: Nitroreductase (NR): flavoprotein nitroreductase isolated from E. coli B, molecular weight 24 kDa, FMN coenzyme (protein, UniProt P38489 1-217, looked up)
# Oxygen-insensitive NAD(P)H …: MDIISVALKRHSTKAFDASKKLTPEQAEQIKTLLQYSPSSTNSQPWHFIVASTEEGKARVAKSAAGNYVFNERKMLDASHVVVFCAKTAMDDVWLKLVVDQEDADGRFATPEAKAANDKGRKFFADMHRKDLHDDAEWMAKQVYLNVGNFLLGVAALGLDAVPIEGFDAAILDAEFGLKEKGYTSLVVVPVGHHSVEDFNATLPKSRLPQNITLTEV
# Legend:
# [1] = molecular target: T1, E. coli nitroreductase (Escherichia coli, UniProt P38489); assay: Substrate specificity: relative rate of NADH oxidation by HPLC (Table 5); format: biochemical; details: relative to CB 1954; 37° C. in air, NADH 500 μM, substrate 100 μM
# T1 construct: endogenous in cells; host or cells: E. coli B cell paste; endogenous enzyme purified by Phenyl-Sepharose and Q-Sepharose chromatography, not recombinant
# Procedure: The ability of the E. coli nitroreductase of the invention to reduce nitro-compounds other than CB 1954 was determined by HPLC by following the decrease in the peak area of NADH resulting from its oxidation. The experiments were carried out as above but the aliquots were injected onto a Partisphere SAX (110×4.7 mm) HPLC column and eluted isocratically (1 ml/min) with 75 mM NaH2 PO4.
# The relative rates of reduction of various nitrobenzamides and
# nitrobenzenes with E. coli nitroreductase enzyme. Reduction
# rates were determined by the resulting oxidation of NADH. All
# reactions were carried out at 37° C. in air, with NADH (500
# electron donor, at an initial substrate concentration of 100 μM.
# [2] = In vivo toxicity of prodrug in mice; details: for deaths: dose 10 mg/kg i.p., groups of 3 mice, 10 mg/kg
# Procedure: The actinomycin D prodrug (AMDPD) of formula V was tested for toxicity in mice. Groups of 3 mice were given 1, 10 or 100 mg/kg body weight i.p. of AMPD, and two further groups of 3 mice were given 1 and 10 mg/kg body weight i.p. of actinomycin D (AMD) dissolved in arachis oil. A further group of 3 mice were untreated, and a final group of 3 mice were given arachis oil i.p. only.
# The body weight of the mice were monitored over 9 days. All mice treated with 10 mg/kg of AMD were dead by day 1. […] In practice, the toxicity of AMDPD is likely to be even lower, since the preparation of AMDPD used contains about 1% unconverted AMD.
# [3] = test system: MAWI cells; assay: Survival (colony forming ability) of MAWI cells with enzyme-activated prodrugs (Table 7); format: cell-based, human
# Procedure: (§1) The effect of enzyme-activated prodrugs on the survival of MAWI
# (§2) cells. 1 ml volumes of MAWI cells (2 × 10^5 /ml) were
# (§3) with 50 μM prodrug, 500 μM NADH, and 10 μg/ml the enzyme of
# (§4) Example 1. After a 2 hour incubation at 37° C., the cells were
# (§5) harvested and assayed for their colony forming ability, and the
# (§6) supernatant assayed for the concentration of remaining prodrug
# [4] = molecular target: T2, E. coli B nitroreductase (Escherichia coli, UniProt P38489); assay: % drug reduction in the MAWI incubations, remaining prodrug by HPLC (Table 7); format: biochemical
# T2 construct: endogenous in cells; host or cells: E. coli B cell paste; endogenous enzyme purified by Phenyl-Sepharose and Q-Sepharose chromatography, not recombinant
# Procedure: as §1, §2, §3, §4, §5, §6
# [5] = molecular target: T1, E. coli nitroreductase; assay: % drug reduction in the V79 incubations, remaining prodrug by HPLC (Table 8); format: biochemical
# Procedure: (§7) Generation of cytotoxicity by the action of the E. coli nitroreductase of Example 1 upon the prodrugs 4-[bis(2-chloroethyl)amino]phenylcarbamic acid 4'-nitrobenzyl ester (I where R^1 NH2 =III) and N-4-nitrobenzyloxy-carbonyl-actinomycin D (V) are shown in Table 8.
# (§8) The effect of enzyme-activated prodrugs on the survival of V79
# (§9) cells. 1 ml volumes of V79 cells (2 × 10^5 /ml) were incubated
# (§10) with prodrug, 500 μM NADH, and 10 μg/ml enzyme. After a 2 hour
# (§11) incubation at 37° C., the cells were harvested and assayed for
# (§12) their colony forming ability, and the supernatant assayed for
# (§13) the concentration of remaining prodrug by HPLC.
# [6] = test system: V79 cells; assay: Survival (colony forming ability) of V79 cells with enzyme-activated prodrugs (Table 8); format: cell-based
# Procedure: as §7, §8, §9, §10, §11, §12, §13
# [7] = molecular target: T2, E. coli B nitroreductase; assay: Enzyme kinetic and inhibition studies; format: biochemical
# Procedure: Protein concentration was determined using the a conventional protein assay (Bio-Rad) calibrated against bovine serum albumin.
# [8] = test system: CC1=CC(=O)c2ccccc2C1=O; assay: Enzyme kinetic and inhibition studies; format: biochemical, E. coli B
# [9] = test system: NC(=O)c1cc(N2CC2)c([N+](=O)[O-])cc1[N+](=O)[O-]; assay: Enzyme kinetic and inhibition studies; format: biochemical, E. coli B
# [10] = substrate: CC1=CC(=O)c2ccccc2C1=O; assay: Enzyme kinetic studies; format: biochemical
# Procedure: (§14) Quinone reductase activities were assayed by a spectrophotometric method using menadione as a substrate and cytochrome c as a terminal electron acceptor as described in Knox et al, Biochem. Pharmacol., 37, 4671-4677, 1988. Initial rates of reaction were determined by linear regression analysis (r>0.995) and kinetic parameters determined from the resulting plots as described by Roberts et al, Biochem. Pharmacol. 38, 4137-4143, 1989. Protein concentration was determined using the a conventional protein assay (Bio-Rad) calibrated against bovine serum albumin.
# (§15) Kinetic parameters for the E. coli nitroreductase and Walker NAD(P)H, dehydrogenase (quinone) EC. […] The absolute rates of reduction of CB 1954 (i.e. under saturating conditions) by the two enzymes is their kcat values and this is 90 fold higher for the E. coli nitroreductase.
# [11] = substrate: NC(=O)c1cc(N2CC2)c([N+](=O)[O-])cc1[N+](=O)[O-]; assay: Enzyme kinetic studies; format: biochemical
# Procedure: as §14, §15
# [12] = test system: V79 cells; assay: Survival (colony-forming ability) of V79 cells treated with CB 1954 in the presence of E. coli B nitroreductase (Table 4); format: cell-based, Hamster; details: nitroreductase 2 μg/ml
# Procedure: E. coli B nitroreductase. All treatments were for 2 hours at 37°
# cells were then plated out for their resulting colony-forming ability.
# nitroreductase concentration was 2 μg/ml and NADH was used as a […]
# [13] = NR 10 μg/ml + 50 μM prodrug + 500 μM NADH
# [14] = NR + prodrug + NADH, prodrug concentration not given
molecule,measurement,setting,value
"NC(=O)c1cc(NCCO)c([N+](=O)[O-])cc1[N+](=O)[O-] [2,4-dinitro-5-(2-hydroxyethylamino)benzamide]",RELATIVE RATE OF NADH OXIDATION NR,[1],0.04
"O=[N+]([O-])c1ccc(O)c([N+](=O)[O-])c1 [2,4-dinitrophenol]",RELATIVE RATE OF NADH OXIDATION NR,[1],< 0.01
NC(=O)c1cc(N2CC2)c([N+](=O)[O-])cc1N [2-amino-5-(aziridin-1-yl)-4-nitrobenzamide],RELATIVE RATE OF NADH OXIDATION NR,[1],< 0.01
NC(=O)c1ccccc1[N+](=O)[O-] [2-nitrobenzamide],RELATIVE RATE OF NADH OXIDATION NR,[1],0.06
"NC(=O)c1cc([N+](=O)[O-])cc([N+](=O)[O-])c1 [3,5-dinitrobenzamide]",RELATIVE RATE OF NADH OXIDATION NR,[1],75.5
NC(=O)c1cccc([N+](=O)[O-])c1 [3-nitrobenzamide],RELATIVE RATE OF NADH OXIDATION NR,[1],1.8
NC(=O)c1ccc([N+](=O)[O-])cc1 [4-nitrobenzamide],RELATIVE RATE OF NADH OXIDATION NR,[1],5.1
"NC(=O)c1cc(Cl)c([N+](=O)[O-])cc1[N+](=O)[O-] [5-chloro-2,4-dinitrobenzamide]",RELATIVE RATE OF NADH OXIDATION NR,[1],22.4
NC(=O)NN=Cc1ccc([N+](=O)[O-])o1 [5-nitro-2-furaldehydesemicarbazone],RELATIVE RATE OF NADH OXIDATION NR,[1],3.6
"Cc1c2oc3c(C)ccc(C(=O)N[C@@H]4C(=O)N[C@H](C(C)C)C(=O)N5CCC[C@H]5C(=O)N(C)CC(=O)N(C)[C@@H](C(C)C)C(=O)O[C@@H]4C)c3nc-2c(C(=O)N[C@@H]2C(=O)N[C@H](C(C)C)C(=O)N3CCC[C@H]3C(=O)N(C)CC(=O)N(C)[C@@H](C(C)C)C(=O)O[C@@H]2C)c(N)c1=O [AMD, actinomycin D] (I: T[dV]P[Sar][NMeV] / II: T[dV]P[Sar][NMeV]; ester I:1-I:C, II:1-II:C; linker I:N-II:N via Actinocin(9to1))","Weight as % of Day 0, Day 2","[2]; dose 1.0 mg/kg i.p., mice",98.6%
same,"Weight as % of Day 0, Day 3","[2]; dose 1.0 mg/kg i.p., mice",95%
same,"Weight as % of Day 0, Day 7","[2]; dose 1.0 mg/kg i.p., mice",101.6%
same,"Weight as % of Day 0, Day 9","[2]; dose 1.0 mg/kg i.p., mice",103%
same,deaths,[2],dead by day 1
same,deaths,[2]; listed as Active Drug,All dead on day 1
CN(C)C(=O)c1cc(N2CC2)c([N+](=O)[O-])cc1[N+](=O)[O-] [CB 10-107],% SURVIVAL,"[3]; 50 μM prodrug alone, 2 hour 37° C.",85.6%
same,% SURVIVAL,"[3]; NADH + prodrug, no enzyme",87.9%
same,% SURVIVAL,[3]; [13],5.0%
same,% DRUG REDUCTION,[4]; 50 μM prodrug alone,< 1.0%
same,% DRUG REDUCTION,"[4]; NADH + prodrug, no enzyme",< 1.0%
same,% DRUG REDUCTION,[4]; [13],45%
same,% DRUG REDUCTION,[5]; [14],45%
same,% SURVIVAL,[6]; [14],5.0%
"O=C(Nc1ccc(N(CCCl)CCCl)cc1)OCc1ccc([N+](=O)[O-])cc1 [I where R^1 NH2 = III, 4-[Bis(2-chloroethyl)amino]phenylcarbamic acid 4'-nitrobenzyl ester]",% DRUG REDUCTION,[5]; 50 μM prodrug alone,< 1.0%
same,% DRUG REDUCTION,[5]; [13],30%
same,% SURVIVAL,[6]; 50 μM prodrug alone,27.1%
"CC1=CC(=O)c2ccccc2C1=O [MENADIONE, menadione]",Km of nitroreductase for menadione higher than Walker enzyme,[7],60 fold
E. coli B nitroreductase (Escherichia coli K-12),Km,[8],80 µM
same,Km,[9],862 ± 145 µM
B1,Km,[10],1.3 µM
same,Km,[11],826 ± 46 µM
B2,% SURVIVAL,[12],94%
